According to patent US8178535B2, “Substituted sulfonamide compounds having bradykinin 1 receptor activity and use thereof as medicaments” (Gruenenthal GmbH, priority 2008, dated 2012):

Assays:
[1] = target: T1, B1R receptor of rats (rB1R) (Rattus norvegicus, UniProt P97583); assay: FLIPR Ca2+ assay (Fluo-4) on CHO K1 cells stably transfected with the B1R gene of rats; assay type: cell-based; conditions: CHO-K1; test substance 10 μM; agonist Des-Arg9-bradykinin 100 nM; % inhibition compared to the maximum achievable inhibition
T1 construct: host or cells: CHO K1 cells
T1 sequence (P97583 1-337): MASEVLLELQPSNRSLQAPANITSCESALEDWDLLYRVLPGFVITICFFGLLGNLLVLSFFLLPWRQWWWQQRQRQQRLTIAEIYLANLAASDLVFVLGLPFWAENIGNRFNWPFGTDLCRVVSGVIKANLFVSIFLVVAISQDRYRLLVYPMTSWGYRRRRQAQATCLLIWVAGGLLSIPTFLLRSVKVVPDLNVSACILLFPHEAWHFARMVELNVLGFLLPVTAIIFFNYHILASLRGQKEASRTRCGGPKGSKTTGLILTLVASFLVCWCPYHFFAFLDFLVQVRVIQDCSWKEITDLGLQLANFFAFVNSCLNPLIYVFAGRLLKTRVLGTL
Procedure, shortened: (§1)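 CHO K1 cells stably expressing human or rat B1R, Fluo-4 loaded, read by FLIPR (Ex 488/Em 540, peak fluorescence). Compound at 10 μM gives % activation vs agonist. After 10 min, agonist added (human: Lys-Des-Arg9-bradykinin 0.5 nM; rat: Des-Arg9-bradykinin 100 nM); % inhibition relative to maximal achievable inhibition.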

[2] = target: T2, human B1R receptor (hB1R) (Homo sapiens, UniProt P46663); assay: FLIPR Ca2+ assay (Fluo-4) on CHO K1 cells stably transfected with the human B1R gene; assay type: cell-based; conditions: CHO-K1; test substance 10 μM; agonist Lys-Des-Arg9-bradykinin 0.5 nM; % inhibition compared to the maximum achievable inhibition
T2 construct: host or cells: CHO K1 cells
T2 sequence (P46663 1-353): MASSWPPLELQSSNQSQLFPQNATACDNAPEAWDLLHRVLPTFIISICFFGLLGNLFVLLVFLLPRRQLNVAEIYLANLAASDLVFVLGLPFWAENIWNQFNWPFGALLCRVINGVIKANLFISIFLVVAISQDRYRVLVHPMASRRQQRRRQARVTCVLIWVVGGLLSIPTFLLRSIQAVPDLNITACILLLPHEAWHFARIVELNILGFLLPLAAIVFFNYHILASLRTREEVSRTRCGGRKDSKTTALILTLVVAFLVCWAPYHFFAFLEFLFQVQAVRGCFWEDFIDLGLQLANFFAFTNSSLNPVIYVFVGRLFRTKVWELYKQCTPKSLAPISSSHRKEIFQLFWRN
Procedure, shortened: as §1

| Compound | inhibition at 10 µM [1] [%] | inhibition at 10 µM [2] [%] |
| --- | --- | --- |
| CCCCC1c2ccc(CN(C)C)n2CCN1C(=O)COCC1CCCCN1S(=O)(=O)c1c(C)cc(OC)cc1C (centres unmarked) [(67), 1-(1-butyl-6-((dimethylamino)methyl)-3,4-dihydropyrrolo[1,2-a]pyrazin-2(1H)-yl)-2-((1-(4-methoxy-2,6-dimethylphenylsulfonyl)piperidin-2-yl)methoxy)ethanone] | 100 | 102 |
| COc1cc(C)c(S(=O)(=O)N2CCCCC2COCC(=O)N2CCn3c(CN(C)C)ccc3C2c2cccs2)c(C)c1 (centres unmarked) [(68), 1-(6-((dimethylamino)methyl)-1-(thiophen-2-yl)-3,4-dihydropyrrolo[1,2-a]pyrazin-2(1H)-yl)-2-((1-(4-methoxy-2,6-dimethylphenylsulfonyl)piperidin-2-yl)methoxy)ethanone] | 103 | 102 |
| CCC1c2ccc(CN(C)C)n2CCN1C(=O)COCC1CCCCN1S(=O)(=O)c1c(C)cc(OC)cc1C (centres unmarked) [(69), 1-(6-((dimethylamino)methyl)-1-ethyl-3,4-dihydropyrrolo[1,2-a]pyrazin-2(1H)-yl)-2-((1-(4-methoxy-2,6-dimethylphenylsulfonyl)piperidin-2-yl)methoxy)ethanone] | 102 | 104 |
| CCC1c2cccn2CCN1C(=O)COCC1CCCCN1S(=O)(=O)c1c(C)cc(OC)cc1C (centres unmarked) [(70), 1-(1-ethyl-3,4-dihydropyrrolo[1,2-a]pyrazin-2(1H)-yl)-2-((1-(4-methoxy-2,6-dimethylphenylsulfonyl)piperidin-2-yl)methoxy)ethanone] | 103 | 102 |
| CCCC1c2cccn2CCN1C(=O)COCC1CCCCN1S(=O)(=O)c1c(C)cc(OC)cc1C (centres unmarked) [(71), 2-((1-(4-methoxy-2,6-dimethylphenylsulfonyl)piperidin-2-yl)methoxy)-1-(1-propyl-3,4-dihydropyrrolo[1,2-a]pyrazin-2(1H)-yl)ethanone] | 102 | 103 |
| COc1cc(C)c(S(=O)(=O)N2CCCCC2COCC(=O)N2CCn3cccc3C2C(C)C)c(C)c1 (centres unmarked) [(72), 1-(1-isopropyl-3,4-dihydropyrrolo[1,2-a]pyrazin-2(1H)-yl)-2-((1-(4-methoxy-2,6-dimethylphenylsulfonyl)piperidin-2-yl)methoxy)ethanone] | 102 | 102 |
| COc1cc(C)c(S(=O)(=O)N2CCCCC2COCC(=O)N2CCn3ncnc3C2)c(C)c1 (centres unmarked) [(73), 1-(5,6-dihydro-[1,2,4]triazolo[1,5-a]pyrazin-7(8H)-yl)-2-((1-(4-methoxy-2,6-dimethylphenylsulfonyl)piperidin-2-yl)methoxy)ethanone] | 102 | 36 |
| CCC1c2cccn2CCN1C(=O)CCC1CCCCN1S(=O)(=O)c1c(C)cc(OC)cc1C (centres unmarked) [(85), 1-(1-ethyl-3,4-dihydropyrrolo[1,2-a]pyrazin-2(1H)-yl)-3-(1-(4-methoxy-2,6-dimethylphenylsulfonyl)piperidin-2-yl)propan-1-one] | 98 | 95 |
| CCC1c2cccn2CCN1C(=O)COC[C@@H]1CCCCN1S(=O)(=O)c1c(C)cc(OC)cc1C (stereo partly drawn) [(86), 1-(1-ethyl-3,4-dihydropyrrolo[1,2-a]pyrazin-2(1H)-yl)-2-(((S)-1-(4-methoxy-2,6-dimethylphenylsulfonyl)piperidin-2-yl)methoxy)ethanone] | 99 | 99 |
| COc1cc(C)c(S(=O)(=O)N2CCCCC2COCC(=O)N2CCn3c(Cc4ccncc4)ccc3C2)c(C)c1 (centres unmarked) [(88), 2-((1-(4-Methoxy-2,6-dimethylphenylsulfonyl)piperidin-2-yl)methoxy)-1-(6-(pyridin-4-ylmethyl)-3,4-dihydropyrrolo[1,2-a]pyrazin-2(1H)-yl)ethanone] | 100 | 99 |
| COc1cc(C)c(S(=O)(=O)N2CCCCC2COCC(=O)N2CCn3c(ccc3-c3cccnc3)C2)c(C)c1 (centres unmarked) [(89), 2-((1-(4-Methoxy-2,6-dimethylphenylsulfonyl)piperidin-2-yl)methoxy)-1-(6-(pyridin-3-yl)-3,4-dihydropyrrolo[1,2-a]pyrazin-2(1H)-yl)ethanone] | 96 | 99 |
| O=C(CC1CCCCN1S(=O)(=O)c1cccc(C(F)(F)F)c1)N1CCn2c(Cc3ccncc3)ccc2C1 (centres unmarked) [(90), 1-(6-(Pyridin-4-ylmethyl)-3,4-dihydropyrrolo[1,2-a]pyrazin-2(1H)-yl)-2-(1-(3-(trifluoromethyl)phenylsulfonyl)piperidin-2-yl)ethanone] | 47 | 25 |
| COc1cc(C)c(S(=O)(=O)N2CCCCC2CCCC(=O)N2CCn3c(Cc4ccncc4)ccc3C2)c(C)c1 (centres unmarked) [(91), 4-(1-(4-Methoxy-2,6-dimethylphenylsulfonyl)piperidin-2-yl)-1-(6-(pyridin-4-ylmethyl)-3,4-dihydropyrrolo[1,2-a]pyrazin-2(1H)-yl)butan-1-one] | 100 | 95 |
| COc1cc(C)c(S(=O)(=O)N2CCCCC2CCCC(=O)N2CCn3c(ccc3-c3cccnc3)C2)c(C)c1 (centres unmarked) [(92), 4-(1-(4-Methoxy-2,6-dimethylphenylsulfonyl)piperidin-2-yl)-1-(6-(pyridin-3-yl)-3,4-dihydropyrrolo[1,2-a]pyrazin-2(1H)-yl)butan-1-one] | 99 | 91 |
| O=C(CC1CCCCN1S(=O)(=O)c1cccc(C(F)(F)F)c1)N1CCn2c(ccc2-c2cccnc2)C1 (centres unmarked) [(93), 1-(6-(Pyridin-3-yl)-3,4-dihydropyrrolo[1,2-a]pyrazin-2(1H)-yl)-2-(1-(3-(trifluoromethyl)phenylsulfonyl)piperidin-2-yl)ethanone] | 55 | 18 |
| COc1cc(C)c(S(=O)(=O)N2CCCCC2CCC(=O)N2CCn3c(ccc3-c3cccnc3)C2)c(C)c1 (centres unmarked) [(94), 3-(1-(4-Methoxy-2,6-dimethylphenylsulfonyl)piperidin-2-yl)-1-(6-(pyridin-3-yl)-3,4-dihydropyrrolo[1,2-a]pyrazin-2(1H)-yl)propan-1-one] | 99 | 45 |
| COc1cc(C)c(S(=O)(=O)N2CCCCC2COCC(=O)N2CCn3c(ccc3-c3ccncc3)C2)c(C)c1 (centres unmarked) [(95), 2-((1-(4-Methoxy-2,6-dimethylphenylsulfonyl)piperidin-2-yl)methoxy)-1-(6-(pyridin-4-yl)-3,4-dihydropyrrolo[1,2-a]pyrazin-2(1H)-yl)ethanone] | 97 | 99 |
| COc1cc(C)c(S(=O)(=O)N2CCCCC2CCC(=O)N2CCn3c(ccc3-c3ccncc3)C2)c(C)c1 (centres unmarked) [(96), 3-(1-(4-Methoxy-2,6-dimethylphenylsulfonyl)piperidin-2-yl)-1-(6-(pyridin-4-yl)-3,4-dihydropyrrolo[1,2-a]pyrazin-2(1H)-yl)propan-1-one] | 96 | 61 |
| O=C(CC1CCCCN1S(=O)(=O)c1cccc(C(F)(F)F)c1)N1CCn2c(Cc3cccnc3)ccc2C1 (centres unmarked) [(97), 1-(6-(Pyridin-3-ylmethyl)-3,4-dihydropyrrolo[1,2-a]pyrazin-2(1H)-yl)-2-(1-(3-(trifluoromethyl)phenylsulfonyl)piperidin-2-yl)ethanone] | 103 | 80 |
